Source: patent publication US8999931B2, “Pharmaceutical composition using gonadotropin-releasing hormone (GNRH) combined variants as immunogen” (Centro de Ingenieria Genetica y Biotecnologia, priority 2008, dated 2015)
Where “and” joins values, the source holds several entries; their conditions need not be identical. Equal values may be shown once. Read-outs that look alike come from different tables or passages of the source.

Columns and labels:
prostate = assay: Prostate weight evaluation at slaughter (100 days), treatment effect; assay type: in vivo, Copenhagen rats; details: mean prostate weight vs placebo at slaughter (100 days); healthy adult rats, 750 μg total peptide
testicles = assay: Testicles weight evaluation at slaughter (100 days), treatment effect; assay type: in vivo, Copenhagen rats; details: mean testicles weight vs placebo at slaughter (100 days); healthy adult rats, 750 μg total peptide
testosterone = assay: Testosterone levels determination / testosterone ablation after immunization; assay type: in vivo; details: oily adjuvant (Montanide type); 2 immunizations in prepuberous animals, 3 or 4 immunizations in adult animals
native GnRH peptide = assay type: in vivo, Copenhagen rats; details: for anti-GnRH antibodies titers: 750 μg total peptide, fortnightly s.c.

Row | Sequence | Effect on Prostate (Etreatment=1−(Ptreatment/Pplacebo)) (prostate) | Effect on Testicles (Etreatment=1−(Ptreatment/Pplacebo)) (testicles) | testosterone ablation (testosterone) | seroconversion (anti-GnRH) (native GnRH peptide; after the fourth immunization, oily adjuvant (Montanide type)) [%] | seroconversion (anti-GnRH) (native GnRH peptide; after the third immunization, s.c., Montanide adjuvant) [%] | anti-GnRH response relative to TT-GnRHm1 variant (native GnRH peptide; doses equal to the TT-GnRHm1 variant) [times weaker] | highest anti-GnRH antibodies titers reached (native GnRH peptide; over the whole experiment (5 immunizations, 100 days)) | anti-GnRH antibodies titers (native GnRH peptide; after 75 days of the beginning of experiment) | anti-GnRH antibodies titers (native GnRH peptide; after 100 days / at the end of the experiment) | seroconversion (anti-GnRH) (native GnRH peptide; after the first immunization, s.c., Montanide adjuvant)
1 | QHWSYPLRPGGGQYIKANSKFIGITEL (Chemical synthesis of the peptide.GnRHm1Tox.) [GnRHm1-TT] | 0.41 | 0.43 | potent effect | 90 | 90 | 10 | 1/1000 |  |  | 
2 | QYIKANSKFIGITELGGQ HWSYPLRPG (QYIKANSKFIGITELGGQHWSYPLRPG; GnRHm1 bonded at its amino-terminal end to epitope 830-844 of the tetanus toxoid) [TT-GnRHm1] | 0.42 | 0.55 |  |  |  |  |  | 1/6000 | 1/12000 | 
3 | IPGVAYTSPEVAWVGGGGQHWSYPLRP (GnRHm1 bonded at its amino-terminal end to the peptide P48 of the protein P64K of Neisseria meningitidis) [P48-P64K-GnRHm1] | 0.28 | 0.49 |  |  |  |  |  |  |  | 100% and 90%
